Measured values from patent US10800791B2, “Triazole ACC inhibitors and uses thereof” (Gilead Apollo, LLC, priority 2015, dated 2020).
pIC50: −log10 of the molar value. Converted amounts (≈) assume the structure as drawn. Like-named read-outs stand apart in the source and are kept apart here.

Assays:
fungal (fACC2) = fungal (fACC2) (UniProt Q00955); details: read-out: fACC2 (in vitro ACC2 Inhibition Assay, IC50), ADP-Glo, 5 nM ACC2, 20 μM ATP, 20 μM acetyl-CoA
Botrtyis cinerea (Bc) = assay: Growth inhibition assay of fungal pathogens, Bc; format: cell-based; details: 48 h
How it was run: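 Percent inhibition derived at 48 hours from OD600 and visual scores versus 2% DMSO control, with media+DMSO blank as background. Spore inocula in 17% V8 medium were sized from 48 h growth curves; compounds tested at final 50/10/2 or 2/0.4/0.08 ppm.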

[1] = Botrtyis cinerea, growth inhibition at 48 hours vs 2% DMSO control, read-out: Concentration at 90% Inhibition Bc
[2] = Botrtyis cinerea, growth inhibition vs 2% DMSO control at 48 hours, read-out: Concentration at 90% Inhibition Bc
[3] = read-out: Concentration at 90% Inhibition Bc, Botrtyis cinerea, growth inhibition at 48 hours vs 2% DMSO control
[4] = read-out: Concentration at 90% Inhibition Bc, Botrtyis cinerea, growth inhibition vs 2% DMSO control at 48 hours

Chain of fungal (fACC2) (Q00955 whole entry): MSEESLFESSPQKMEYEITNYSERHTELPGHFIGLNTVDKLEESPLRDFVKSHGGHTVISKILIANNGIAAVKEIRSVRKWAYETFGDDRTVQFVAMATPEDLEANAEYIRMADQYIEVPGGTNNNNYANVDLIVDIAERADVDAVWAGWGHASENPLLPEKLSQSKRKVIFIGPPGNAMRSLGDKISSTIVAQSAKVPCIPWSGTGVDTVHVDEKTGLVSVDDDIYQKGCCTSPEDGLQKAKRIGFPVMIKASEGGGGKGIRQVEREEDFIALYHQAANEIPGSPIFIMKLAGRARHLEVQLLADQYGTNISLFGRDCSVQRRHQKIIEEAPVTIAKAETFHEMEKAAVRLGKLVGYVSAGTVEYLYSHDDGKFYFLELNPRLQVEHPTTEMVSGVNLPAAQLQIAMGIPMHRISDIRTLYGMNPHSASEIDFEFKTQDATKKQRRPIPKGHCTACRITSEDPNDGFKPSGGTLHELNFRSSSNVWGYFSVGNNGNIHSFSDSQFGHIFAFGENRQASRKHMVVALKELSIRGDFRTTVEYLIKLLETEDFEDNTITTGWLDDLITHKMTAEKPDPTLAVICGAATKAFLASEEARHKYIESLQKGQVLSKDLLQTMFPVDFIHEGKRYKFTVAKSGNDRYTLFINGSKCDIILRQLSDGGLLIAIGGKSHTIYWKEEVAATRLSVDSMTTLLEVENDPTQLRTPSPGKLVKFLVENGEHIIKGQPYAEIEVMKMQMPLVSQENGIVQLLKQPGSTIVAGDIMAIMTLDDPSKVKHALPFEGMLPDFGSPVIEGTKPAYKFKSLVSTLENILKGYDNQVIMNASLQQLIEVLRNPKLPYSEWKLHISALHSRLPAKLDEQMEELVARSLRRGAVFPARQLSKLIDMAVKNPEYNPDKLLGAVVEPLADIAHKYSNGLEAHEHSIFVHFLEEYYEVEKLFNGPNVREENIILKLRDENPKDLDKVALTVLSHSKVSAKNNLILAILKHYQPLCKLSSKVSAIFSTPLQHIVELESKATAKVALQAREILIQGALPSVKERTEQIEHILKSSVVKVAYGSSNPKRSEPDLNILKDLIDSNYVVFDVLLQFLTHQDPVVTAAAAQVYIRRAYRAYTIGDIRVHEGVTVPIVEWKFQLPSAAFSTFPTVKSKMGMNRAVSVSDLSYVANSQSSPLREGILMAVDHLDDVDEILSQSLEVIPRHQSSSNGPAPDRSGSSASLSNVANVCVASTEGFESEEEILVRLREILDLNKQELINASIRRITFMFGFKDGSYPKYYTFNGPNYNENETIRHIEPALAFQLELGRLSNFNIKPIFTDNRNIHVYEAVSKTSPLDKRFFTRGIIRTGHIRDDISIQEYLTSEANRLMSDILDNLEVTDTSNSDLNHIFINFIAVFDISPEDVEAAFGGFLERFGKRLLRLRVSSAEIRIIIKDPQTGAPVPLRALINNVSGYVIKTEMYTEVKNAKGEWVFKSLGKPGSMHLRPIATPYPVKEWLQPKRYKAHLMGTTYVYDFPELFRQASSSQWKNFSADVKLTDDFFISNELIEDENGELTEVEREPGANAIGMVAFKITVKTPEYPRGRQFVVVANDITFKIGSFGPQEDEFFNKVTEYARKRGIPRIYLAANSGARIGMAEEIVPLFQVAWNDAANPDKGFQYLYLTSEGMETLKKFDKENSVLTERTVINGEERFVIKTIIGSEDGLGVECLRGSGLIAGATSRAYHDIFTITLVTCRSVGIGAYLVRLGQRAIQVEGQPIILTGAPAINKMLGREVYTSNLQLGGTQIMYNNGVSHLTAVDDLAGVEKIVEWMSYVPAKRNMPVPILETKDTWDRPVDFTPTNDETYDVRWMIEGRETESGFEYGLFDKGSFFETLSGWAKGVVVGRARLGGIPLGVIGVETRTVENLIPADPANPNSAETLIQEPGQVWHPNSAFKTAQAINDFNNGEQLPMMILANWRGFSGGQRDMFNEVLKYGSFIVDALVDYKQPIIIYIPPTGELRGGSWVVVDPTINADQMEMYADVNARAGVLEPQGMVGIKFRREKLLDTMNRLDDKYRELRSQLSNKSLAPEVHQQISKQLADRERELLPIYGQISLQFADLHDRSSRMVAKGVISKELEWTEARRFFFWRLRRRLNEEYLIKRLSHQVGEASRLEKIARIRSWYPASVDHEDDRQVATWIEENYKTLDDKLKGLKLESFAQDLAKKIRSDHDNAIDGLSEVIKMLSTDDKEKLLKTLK

COc1ccc(F)cc1[C@H](Cn1c(=O)n(C(C)(C)C(=O)N2CCCC2)c(=O)c2c(C)c(-n3nccn3)sc21)OCCN(C)C [Compound I-75, (R)-1-(2-(2-(dimethylamino)ethoxy)-2-(5-fluoro-2-methoxyphenyl)ethyl)-5-methyl-3-(2-methyl-1-oxo-1-(pyrrolidin-1-yl)propan-2-yl)-6-(2H-1,2,3-triazol-2-yl)thieno[2,3-d]pyrimidine-2,4(1H,3H)-dione]
pIC50 (fungal (fACC2); Table 2a): 8.30 to 9.00 | pIC50 (fungal (fACC2); Table 2b, additional results): 8.30 to 9.00 | IC90 (Botrtyis cinerea (Bc); [1]): > 50 µg/mL | IC90 (Botrtyis cinerea (Bc); [2]): > 50 µg/mL

COc1ccc(F)cc1[C@H](Cn1c(=O)n(C(C)(C)C(=O)NC(C)C)c(=O)c2c(C)c(-n3nccn3)sc21)OCCN(C)C [Compound I-76, (R)-2-(1-(2-(2-(dimethylamino)ethoxy)-2-(5-fluoro-2-methoxyphenyl)ethyl)-5-methyl-2,4-dioxo-6-(2H-1,2,3-triazol-2-yl)-1,4-dihydro-thieno[2,3-d]pyrimidin-3(2H)-yl)-N-isopropyl-2-methylpropanamide]
pIC50 (fungal (fACC2); Table 2a): 8.30 to 9.00 | pIC50 (fungal (fACC2); Table 2b, additional results): 8.30 to 9.00 | IC90 (Botrtyis cinerea (Bc); [3]): > 50 µg/mL | IC90 (Botrtyis cinerea (Bc); [4]): > 50 µg/mL

COc1ccc(F)cc1[C@H](Cn1c(=O)n([C@@H](C)C(=O)NC2CCC2)c(=O)c2c(C)c(-n3nccn3)sc21)OCCO [Compound I-77, (S)—N-cyclobutyl-2-(1-((R)-2-(5-fluoro-2-methoxyphenyl)-2-(2-hydroxyethoxy)ethyl)-5-methyl-2,4-dioxo-6-(2H-1,2,3-triazol-2-yl)-1,4-dihydrothieno[2,3-d]pyrimidin-3(2H)-yl)propanamide]
pIC50 (fungal (fACC2); Table 2a): 8.30 to 9.00 | pIC50 (fungal (fACC2); Table 2b, additional results): 8.30 to 9.00 | IC90 (Botrtyis cinerea (Bc); [1]): 0.4 µg/mL (≈ 0.682 µM) | IC90 (Botrtyis cinerea (Bc); [2]): 0.4 µg/mL (≈ 0.682 µM)

COc1ccc(F)cc1[C@H](Cn1c(=O)n([C@@H](C)C(=O)N(C)C(C)C)c(=O)c2c(C)c(-n3nccn3)sc21)OCCO [Compound I-78, (S)-2-(1-((R)-2-(5-fluoro-2-methoxyphenyl)-2-(2-hydroxy-ethoxy)ethyl)-5-methyl-2,4-dioxo-6-(2H-1,2,3-triazol-2-yl)-1,4-dihydrothieno[2,3-d]pyrimidin-3(2H)-yl)-N-isopropyl-N-methylpropanamide]
pIC50 (fungal (fACC2); Table 2a): 8.30 to 9.00 | pIC50 (fungal (fACC2); Table 2b, additional results): 9.00 to 9.52 | IC90 (Botrtyis cinerea (Bc); [1]): 0.4 µg/mL (≈ 0.68 µM) | IC90 (Botrtyis cinerea (Bc); [2]): 0.4 µg/mL (≈ 0.68 µM)

COCCO[C@@H](Cn1c(=O)n(CC(=O)N2CCCC2)c(=O)c2c(C)c(-n3nccn3)sc21)c1cc(F)ccc1OC [Compound I-79, (R)-1-(2-(5-fluoro-2-methoxyphenyl)-2-(2-methoxy-ethoxy)ethyl)-5-methyl-3-(2-oxo-2-(pyrrolidin-1-yl)ethyl)-6-(2H-1,2,3-tria-zol-2-yl)thieno[2,3-d]pyrimidine-2,4(1H,3H)-dione]
pIC50 (fungal (fACC2); Table 2a): 8.30 to 9.00 | pIC50 (fungal (fACC2); Table 2b, additional results): 8.30 to 9.00 | IC90 (Botrtyis cinerea (Bc); [1]): 2 µg/mL (≈ 3.41 µM) | IC90 (Botrtyis cinerea (Bc); [2]): 2 µg/mL (≈ 3.41 µM)

COCCO[C@@H](Cn1c(=O)n(CC(=O)NC(C)C)c(=O)c2c(C)c(-n3nccn3)sc21)c1cc(F)ccc1OC [Compound I-80, (R)-2-(1-(2-(5-fluoro-2-methoxyphenyl)-2-(2-methoxy-ethoxy)ethyl)-5-methyl-2,4-dioxo-6-(2H-1,2,3-triazol-2-yl)-1,4-dihydro-thieno[2,3-d]pyrimidin-3(2H)-yl)-N-isopropylacetamide]
pIC50 (fungal (fACC2); Table 2a): 8.30 to 9.00 | pIC50 (fungal (fACC2); Table 2b, additional results): 8.30 to 9.00 | IC90 (Botrtyis cinerea (Bc); [3]): > 50 µg/mL | IC90 (Botrtyis cinerea (Bc); [4]): > 50 µg/mL

COc1ccc(F)cc1[C@H](Cn1c(=O)n(CC(=O)N2CCCC2)c(=O)c2c(C)c(-n3nccn3)sc21)OCCO [Compound I-81, (R)-1-(2-(5-fluoro-2-methoxyphenyl)-2-(2-hydroxy-ethoxy)ethyl)-5-methyl-3-(2-oxo-2-(pyrrolidin-1-yl)ethyl)-6-(2H-1,2,3-triazol-2-yl)thieno[2,3-d]pyrimidine-2,4(1H,3H)-dione]
pIC50 (fungal (fACC2); Table 2a): 8.30 to 9.00 | pIC50 (fungal (fACC2); Table 2b, additional results): 8.30 to 9.00 | IC90 (Botrtyis cinerea (Bc); [1]): 0.08 µg/mL (≈ 0.14 µM) | IC90 (Botrtyis cinerea (Bc); [2]): 0.08 µg/mL (≈ 0.14 µM)

COc1ccc(F)cc1[C@H](Cn1c(=O)n(CC(=O)NC(C)C)c(=O)c2c(C)c(-n3nccn3)sc21)OCCO [Compound I-82, (R)-2-(1-(2-(5-fluoro-2-methoxyphenyl)-2-(2-hydroxy-ethoxy)ethyl)-5-methyl-2,4-dioxo-6-(2H-1,2,3-triazol-2-yl)-1,4-dihydro-thieno[2,3-d]pyrimidin-3(2H)-yl)-N-isopropylacetamide]
pIC50 (fungal (fACC2); Table 2a): 8.30 to 9.00 | pIC50 (fungal (fACC2); Table 2b, additional results): 8.30 to 9.00 | IC90 (Botrtyis cinerea (Bc); [3]): 2 µg/mL (≈ 3.57 µM) | IC90 (Botrtyis cinerea (Bc); [4]): 2 µg/mL (≈ 3.57 µM)

COc1ccc(F)cc1[C@H](Cn1c(=O)n([C@H](C)C(=O)NC2CCC2)c(=O)c2c(C)c(-n3nccn3)sc21)OCCO [Compound I-84, (R)—N-cyclobutyl-2-(1-((R)-2-(5-fluoro-2-methoxyphenyl)-2-(2-hydroxyethoxy)ethyl)-5-methyl-2,4-dioxo-6-(2H-1,2,3-triazol-2-yl)-1,4-dihydrothieno[2,3-d]pyrimidin-3(2H)-yl)propanamide]
pIC50 (fungal (fACC2); Table 2a): 9.00 to 9.40 | pIC50 (fungal (fACC2); Table 2b, additional results): 9.00 to 9.52 | IC90 (Botrtyis cinerea (Bc); [1]): 0.4 µg/mL (≈ 0.682 µM) | IC90 (Botrtyis cinerea (Bc); [2]): 0.4 µg/mL (≈ 0.682 µM)

COc1ccc(F)cc1[C@H](Cn1c(=O)n([C@H](C)C(=O)N(C)C(C)C)c(=O)c2c(C)c(-n3nccn3)sc21)OCCO [Compound I-85, (R)-2-(1-((R)-2-(5-fluoro-2-methoxyphenyl)-2-(2-hydroxy-ethoxy)ethyl)-5-methyl-2,4-dioxo-6-(2H-1,2,3-triazol-2-yl)-1,4-dihydro-thieno[2,3-d]pyrimidin-3(2H)-yl)-N-isopropyl-N-methylpropanamide]
pIC50 (fungal (fACC2); Table 2a): 9.00 to 9.40 | pIC50 (fungal (fACC2); Table 2b, additional results): 9.00 to 9.52 | IC90 (Botrtyis cinerea (Bc); [1]): 2 µg/mL (≈ 3.4 µM) | IC90 (Botrtyis cinerea (Bc); [2]): 2 µg/mL (≈ 3.4 µM)

COCCCO[C@@H](Cn1c(=O)n([C@@H](C)C(=O)NC(C)C)c(=O)c2c(C)c(-n3nccn3)sc21)c1cc(F)ccc1OC [Compound I-86, (S)-2-(1-((R)-2-(5-fluoro-2-methoxyphenyl)-2-(3-methoxy-propoxy)ethyl)-5-methyl-2,4-dioxo-6-(2H-1,2,3-triazol-2-yl)-1,4-dihydrothieno[2,3-d]pyrimidin-3(2H)-yl)-N-isopropylpropanamide]
pIC50 (fungal (fACC2); Table 2a): 8.30 to 9.00 | pIC50 (fungal (fACC2); Table 2b, additional results): 8.30 to 9.00 | IC90 (Botrtyis cinerea (Bc); [3]): 0.4 µg/mL (≈ 0.664 µM) | IC90 (Botrtyis cinerea (Bc); [4]): 0.4 µg/mL (≈ 0.664 µM)

COCCCO[C@@H](Cn1c(=O)n([C@H](C)C(=O)NC(C)C)c(=O)c2c(C)c(-n3nccn3)sc21)c1cc(F)ccc1OC [Compound I-87, (R)-2-(1-((R)-2-(5-fluoro-2-methoxyphenyl)-2-(3-methoxy-propoxy)ethyl)-5-methyl-2,4-dioxo-6-(2H-1,2,3-triazol-2-yl)-1,4-dihydrothieno[2,3-d]pyrimidin-3(2H)-yl)-N-isopropylpropanamide]
pIC50 (fungal (fACC2); Table 2a): 8.30 to 9.00 | pIC50 (fungal (fACC2); Table 2b, additional results): 8.30 to 9.00 | IC90 (Botrtyis cinerea (Bc); [1]): 0.08 µg/mL (≈ 0.133 µM) | IC90 (Botrtyis cinerea (Bc); [2]): 0.08 µg/mL (≈ 0.133 µM)

COc1ccc(F)cc1[C@H](Cn1c(=O)n([C@@H](C)C(=O)NC(C)C)c(=O)c2c(C)c(-n3nccn3)sc21)OCCO [Compound I-88, (S)-2-(1-((R)-2-(5-fluoro-2-methoxyphenyl)-2-(2-hydroxyethoxy)ethyl)-5-methyl-2,4-dioxo-6-(2H-1,2,3-triazol-2-yl)-1,4-dihydro-thieno[2,3-d]pyrimidin-3(2H)-yl)-N-isopropylpropanamide]
pIC50 (fungal (fACC2); Table 2a): 8.30 to 9.00 | pIC50 (fungal (fACC2); Table 2b, additional results): 9.00 to 9.52 | IC90 (Botrtyis cinerea (Bc); [3]): 2 µg/mL (≈ 3.48 µM) | IC90 (Botrtyis cinerea (Bc); [4]): 2 µg/mL (≈ 3.48 µM)

COc1ccc(F)cc1[C@H](Cn1c(=O)n([C@H](C)C(=O)NC(C)C)c(=O)c2c(C)c(-n3nccn3)sc21)OCCO [Compound I-89, (R)-2-(1-((R)-2-(5-fluoro-2-methoxyphenyl)-2-(2-hydroxy-ethoxy)ethyl)-5-methyl-2,4-dioxo-6-(2H-1,2,3-triazol-2-yl)-1,4-dihydrothieno[2,3-d]pyrimidin-3(2H)-yl)-N-isopropylpropanamide]
pIC50 (fungal (fACC2); Table 2a): 8.30 to 9.00 | pIC50 (fungal (fACC2); Table 2b, additional results): 8.30 to 9.00 | IC90 (Botrtyis cinerea (Bc); [3]): 0.4 µg/mL (≈ 0.696 µM) | IC90 (Botrtyis cinerea (Bc); [4]): 0.4 µg/mL (≈ 0.696 µM)

COc1ccc(F)cc1[C@H](Cn1c(=O)n(C(C)(C)C(=O)NC(C)C)c(=O)c2c(C)c(-n3nccn3)sc21)OCCC(N)=O [Compound I-90, (R)-2-(1-(2-(3-amino-3-oxopropoxy)-2-(5-fluoro-2-metho-xyphenyl)ethyl)-5-methyl-2,4-dioxo-6-(2H-1,2,3-triazol-2-yl)-1,4-dihydro-thieno[2,3-d]pyrimidin-3(2H)-yl)-N-isopropyl-2-methylpropanamide]
pIC50 (fungal (fACC2); Table 2a): 8.30 to 9.00 | pIC50 (fungal (fACC2); Table 2b, additional results): 8.30 to 9.00 | IC90 (Botrtyis cinerea (Bc); [1]): 2 µg/mL (≈ 3.25 µM) | IC90 (Botrtyis cinerea (Bc); [2]): 2 µg/mL (≈ 3.25 µM)

COc1ccc(F)cc1[C@H](Cn1c(=O)n(C(C)(C)C(=O)NC(C)C)c(=O)c2c(C)c(-n3nccn3)sc21)OCCC#N [Compound I-91, (R)-2-(1-(2-(2-cyanoethoxy)-2-(5-fluoro-2-methoxy-phenyl)ethyl)-5-methyl-2,4-dioxo-6-(2H-1,2,3-triazol-2-yl)-1,4-dihydro-thieno[2,3-d]pyrimidin-3(2H)-yl)-N-isopropyl-2-methylpropanamide]
pIC50 (fungal (fACC2); Table 2a): 8.30 to 9.00 | pIC50 (fungal (fACC2); Table 2b, additional results): 8.30 to 9.00 | IC90 (Botrtyis cinerea (Bc); [1]): 0.4 µg/mL (≈ 0.669 µM) | IC90 (Botrtyis cinerea (Bc); [2]): 0.4 µg/mL (≈ 0.669 µM)
